The text below walks through data of US12473298B2, “Amide compounds, preparation method therefor, and use thereof in the medical field” (Shanghai Synergy Pharmaceutical Sciences Co., Ltd., priority 2019, dated 2025).

Like-named read-outs stand apart in the source and are kept apart here.

One data set deals with Mutant type EZH2(Y641F) (Homo sapiens (Human), UniProt Q15910, Y641F). As to the kind of experiment: AlphaLISA, mutant type PRC2 complex EZH2(Y641F). Format: biochemical. As to conditions: read-out: Mutant type EZH2(Y641F) IC50 Nanomoles per Liter. In general terms: Alpha assays give light when donor and acceptor beads are brought close together.
Chain of Mutant type EZH2(Y641F) (Q15910 whole entry Y641F): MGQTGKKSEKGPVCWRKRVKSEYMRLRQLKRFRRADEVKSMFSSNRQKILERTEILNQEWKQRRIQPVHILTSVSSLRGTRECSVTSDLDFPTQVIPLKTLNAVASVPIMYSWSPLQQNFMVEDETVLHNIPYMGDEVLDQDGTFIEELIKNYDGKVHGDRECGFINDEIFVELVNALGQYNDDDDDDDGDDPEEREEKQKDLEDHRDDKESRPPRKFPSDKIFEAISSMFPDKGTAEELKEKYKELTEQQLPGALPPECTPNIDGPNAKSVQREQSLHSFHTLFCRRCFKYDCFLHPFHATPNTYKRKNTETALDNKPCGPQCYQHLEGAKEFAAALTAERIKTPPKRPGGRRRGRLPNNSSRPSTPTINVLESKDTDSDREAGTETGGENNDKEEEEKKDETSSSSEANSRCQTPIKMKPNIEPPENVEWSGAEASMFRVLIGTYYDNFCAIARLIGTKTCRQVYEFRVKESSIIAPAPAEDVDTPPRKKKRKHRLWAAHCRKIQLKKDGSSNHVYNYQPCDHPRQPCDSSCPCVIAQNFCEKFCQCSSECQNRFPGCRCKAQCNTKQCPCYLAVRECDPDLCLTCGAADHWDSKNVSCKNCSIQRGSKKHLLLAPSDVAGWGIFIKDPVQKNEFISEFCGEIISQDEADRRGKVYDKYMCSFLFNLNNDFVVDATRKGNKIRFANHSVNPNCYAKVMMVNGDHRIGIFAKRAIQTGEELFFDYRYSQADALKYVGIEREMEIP
Chain of Mutant type EZH2(Y641F) (O75530 whole entry partner): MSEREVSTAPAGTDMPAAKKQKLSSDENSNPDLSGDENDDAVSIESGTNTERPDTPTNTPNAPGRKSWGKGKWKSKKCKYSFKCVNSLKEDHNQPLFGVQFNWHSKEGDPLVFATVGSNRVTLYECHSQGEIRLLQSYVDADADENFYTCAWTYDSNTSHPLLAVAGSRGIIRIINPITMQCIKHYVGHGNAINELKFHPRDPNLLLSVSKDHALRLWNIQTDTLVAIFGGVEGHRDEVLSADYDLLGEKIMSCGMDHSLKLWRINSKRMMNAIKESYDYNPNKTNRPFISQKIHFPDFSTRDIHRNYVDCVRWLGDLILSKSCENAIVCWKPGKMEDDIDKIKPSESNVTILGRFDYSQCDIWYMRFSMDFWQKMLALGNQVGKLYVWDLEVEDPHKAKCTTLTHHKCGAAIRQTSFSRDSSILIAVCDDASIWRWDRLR
Chain of Mutant type EZH2(Y641F) (Q15022 whole entry partner): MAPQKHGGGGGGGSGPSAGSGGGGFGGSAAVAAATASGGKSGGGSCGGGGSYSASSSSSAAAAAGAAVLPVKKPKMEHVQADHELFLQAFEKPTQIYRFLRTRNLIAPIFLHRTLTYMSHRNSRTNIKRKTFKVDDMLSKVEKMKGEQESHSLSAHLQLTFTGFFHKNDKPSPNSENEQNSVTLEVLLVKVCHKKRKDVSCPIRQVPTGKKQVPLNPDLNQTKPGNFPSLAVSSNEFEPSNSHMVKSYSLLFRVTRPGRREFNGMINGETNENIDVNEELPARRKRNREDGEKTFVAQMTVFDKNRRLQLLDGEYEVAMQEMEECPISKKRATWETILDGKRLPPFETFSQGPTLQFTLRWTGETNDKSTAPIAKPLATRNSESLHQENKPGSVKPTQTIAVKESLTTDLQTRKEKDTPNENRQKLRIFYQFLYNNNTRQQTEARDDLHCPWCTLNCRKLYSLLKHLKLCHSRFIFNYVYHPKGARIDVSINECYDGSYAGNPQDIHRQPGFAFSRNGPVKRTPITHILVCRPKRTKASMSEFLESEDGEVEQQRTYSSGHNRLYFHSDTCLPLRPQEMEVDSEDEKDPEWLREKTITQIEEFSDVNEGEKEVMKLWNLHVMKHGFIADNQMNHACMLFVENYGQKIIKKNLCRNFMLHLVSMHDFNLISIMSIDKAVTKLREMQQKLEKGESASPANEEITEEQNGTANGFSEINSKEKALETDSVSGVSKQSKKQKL
Chain of Mutant type EZH2(Y641F) (Q09028 whole entry partner): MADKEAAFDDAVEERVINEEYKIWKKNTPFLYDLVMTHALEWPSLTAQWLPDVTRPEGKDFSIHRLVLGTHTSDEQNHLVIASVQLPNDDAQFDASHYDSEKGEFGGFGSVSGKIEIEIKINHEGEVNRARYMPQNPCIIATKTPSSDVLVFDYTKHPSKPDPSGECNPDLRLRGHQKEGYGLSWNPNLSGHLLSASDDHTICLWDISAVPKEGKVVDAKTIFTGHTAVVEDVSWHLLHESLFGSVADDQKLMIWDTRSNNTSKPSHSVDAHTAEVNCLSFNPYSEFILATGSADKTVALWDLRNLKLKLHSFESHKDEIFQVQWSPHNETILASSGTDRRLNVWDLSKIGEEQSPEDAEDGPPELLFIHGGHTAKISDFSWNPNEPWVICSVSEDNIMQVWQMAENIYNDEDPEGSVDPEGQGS
Chain of Mutant type EZH2(Y641F) (Q6ZN18 whole entry partner): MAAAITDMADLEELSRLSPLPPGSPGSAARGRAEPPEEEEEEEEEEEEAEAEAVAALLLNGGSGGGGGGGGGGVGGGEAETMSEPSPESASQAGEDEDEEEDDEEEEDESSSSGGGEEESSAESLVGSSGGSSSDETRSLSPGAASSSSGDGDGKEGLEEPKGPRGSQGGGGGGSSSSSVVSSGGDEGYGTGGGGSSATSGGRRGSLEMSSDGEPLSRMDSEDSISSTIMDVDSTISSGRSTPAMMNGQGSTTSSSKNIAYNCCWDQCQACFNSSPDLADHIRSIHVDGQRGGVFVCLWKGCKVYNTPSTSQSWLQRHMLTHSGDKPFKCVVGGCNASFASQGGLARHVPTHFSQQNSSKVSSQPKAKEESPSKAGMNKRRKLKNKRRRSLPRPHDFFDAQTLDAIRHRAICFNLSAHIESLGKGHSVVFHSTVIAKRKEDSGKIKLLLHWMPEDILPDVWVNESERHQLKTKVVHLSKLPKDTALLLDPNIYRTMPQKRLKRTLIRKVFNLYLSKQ
Another data set deals with Mutant type EZH2(Y641N) (Homo sapiens (Human), UniProt Q15910, Y641N). Put plainly: AlphaLISA, mutant type PRC2 complex EZH2(Y641N). Format: biochemical. As to conditions: read-out: Mutant type EZH2(Y641N) IC50 Nanomoles per Liter.
Chain of Mutant type EZH2(Y641N) (Q15910 whole entry Y641N): as the sequence (Q15910 whole entry Y641F) above, with F641N counted along it
Chain of Mutant type EZH2(Y641N) (O75530 whole entry partner): as the sequence (O75530 whole entry partner) above
Chain of Mutant type EZH2(Y641N) (Q15022 whole entry partner): as the sequence (Q15022 whole entry partner) above
Chain of Mutant type EZH2(Y641N) (Q09028 whole entry partner): as the sequence (Q09028 whole entry partner) above
Chain of Mutant type EZH2(Y641N) (Q6ZN18 whole entry partner): as the sequence (Q6ZN18 whole entry partner) above
For data set [1], the system named is human diffuse large B-cell lymphoma cells (Karpas 422 cell). As to the kind of experiment: Karpas 422 cell proliferation, Calcein AM staining. Format: cell-based. As to conditions: data of 14th day, read-out: Karpas422 Proliferation IC50 Nanomoles per Liter.
The next data set concerns the target wild-type EZH2 (Homo sapiens (Human), UniProt Q15910). Put plainly: radiometric assay, activity to wild-type EZH2 of PRC2. As to conditions: read-out: Wild-type EZH2 IC50 Nanomoles per Liter.
Data set [2] concerns human diffuse large cell lymphoma B lymphocytes (Pfeiffer cell). As to the kind of experiment: Pharmacodynamic experiment, Pfeiffer transplanted tumor model in mice. It is filed as in vivo, mice (beige SCID). As to conditions: intragastrically, once a day for 21 days; for inhibition in vivo at 100 mg/kg: Mus musculus, Pfeiffer, po, 504 h, read-out: inhibited tumor growth; for inhibited tumor growth: 100 mg/kg.
Excerpt: Under sterile conditions, human diffuse large cell lymphoma B lymphocytes (Pfeiffer cell) in logarithmic growth stage were digested and mixed with Matrigel and transplanted subcutaneously on the right back of mice (beige SCID) with severe combined immunodeficiency disease.

Data set [3] shares this test system. Put plainly: Pfeiffer cell proliferation, Calcein AM staining. It is filed as cell-based. As to conditions: data of 14th day, read-out: Pfeiffer Proliferation IC50 Nanomoles per Liter.
Excerpt: The diffuse large cell lymphoma B lymphocytes (Pfeiffer cells) were collected and counted when growing well.
For another data set, the target named is Mutant type EZH2(A677G) (Homo sapiens (Human), UniProt Q15910, A677G). As to the kind of experiment: AlphaLISA, mutant type PRC2 complex EZH2(A677G). It is filed as biochemical. Conditions: read-out: Mutant type EZH2(A677G) IC59 Nanomoles per Liter.
Chain of Mutant type EZH2(A677G) (Q15910 whole entry A677G): as the sequence (Q15910 whole entry Y641F) above, with F641Y, A677G counted along it
Chain of Mutant type EZH2(A677G) (O75530 whole entry partner): as the sequence (O75530 whole entry partner) above
Chain of Mutant type EZH2(A677G) (Q15022 whole entry partner): as the sequence (Q15022 whole entry partner) above
Chain of Mutant type EZH2(A677G) (Q09028 whole entry partner): as the sequence (Q09028 whole entry partner) above
Chain of Mutant type EZH2(A677G) (Q6ZN18 whole entry partner): as the sequence (Q6ZN18 whole entry partner) above
Data set [4] in a line: Pharmacokinetic experiment in rats. It is filed as in vivo, SD rats. On the procedure: A certain amount of compound was weighted and dissolved in 0.1% Tween under vortex and ultrasound, and 0.5% carboxymethyl cellulose sodium (CMC-NA) solution was added to form a uniform solution.
Where [5] appears, read: male, SD, rat, plasma, rats, Intravenous-Dose 4 mg/kg, read-out: Area Curve (AUC, ng/mL · h).
Setting [6] is: male, SD, rat, plasma; rats, Intravenous-Dose 4 mg/kg; read-out: Half life T1/2, h) (converted).
Where [7] appears, read: male, SD, rat, plasma, rats, Oral-Dose 20 mg/kg, read-out: Area Curve (AUC, ng/mL · h).
Setting [8] is: male, SD, rat, plasma, rats, Oral-Dose 20 mg/kg, read-out: Blood Drug level (Cmax, ng/mL).
The mark [9] stands for this setting: male, SD, rat, plasma, rats, oral 20 mg/kg vs intravenous 4 mg/kg, read-out: Bioavailability (P %).
Setting [10] is: male, SD, rat, in vivo, iv, 4 mg/kg.
Where [11] appears, read: male, SD, rat, in vivo, po, 20 mg/kg.
[12] abbreviates: rats, oral 20 mg/kg vs intravenous 4 mg/kg.

Chain of wild-type EZH2 (Q15910 whole entry): as the sequence (Q15910 whole entry Y641F) above, with F641Y counted along it
Chain of wild-type EZH2 (O75530 whole entry partner): as the sequence (O75530 whole entry partner) above
Chain of wild-type EZH2 (Q15022 whole entry partner): as the sequence (Q15022 whole entry partner) above
Description for wild-type EZH2: 25 μL of reaction solution was transferred to a scintillation plate, which was incubated at room temperature for 1 hour (h) and washed with deionized water and 0.1% Tween 20 for three times. A PerkinElmer liquid scintillation/luminescence counter was used to read the value, and GraphPad Prism 5 was used to calculate the median inhibitory concentration (IC50) of the compounds.

As for `CCN(c1cc(-c2ccc3c(c2)NC(=O)C32CCC(C)(O)CC2)cc(C(=O)NCc2c(C)cc(C)[nH]c2=O)c1C)C1CCOCC1` (centres unmarked) [Example 93, N-((4,6-dimethyl-2-oxo-1,2-dihydropyridin-3-yl)methyl)-3-(ethyl(tetrahydro-2H-pyran-4-yl)amino)-5-(4-hydroxy-4-methyl-2′-oxospiro[cyclohexane-1,3′-dihydroindole]-6′-yl)-2-methylbenzamide], the IC50 on Mutant type EZH2(Y641F) was 0.57 nM; on Mutant type EZH2(Y641N) it was 0.4 nM; in data set [1] (Homo sapiens, KARPAS-422), 2.64 nM; on wild-type EZH2 it was 1.12 nM; in data set [3] (Homo sapiens, Pfeiffer), 1.39 nM. Also, the inhibition in vivo at 100 mg/kg in data set [2] is 94%.
For the molecule `CCN(c1cc(-c2ccc3c(c2)C2(CCOCC2)C(=O)N3C)cc(C(=O)NCc2c(C)cc(C)[nH]c2=O)c1C)C1CCOCC1` [Example 83, N-((4,6-dimethyl-2-oxo-1,2-dihydropyridin-3-yl)methyl)-3-(ethyl(tetrahydro-2H-pyran-4-yl)amino)-2-methyl-5-(1-methyl-2-oxo-2′,3′,5′,6′-tetrahydrospiro[dihydroindole-3,4′-pyran]-5-yl)benzamide], the IC50 at Mutant type EZH2(Y641F) is 1.48 nM; on Mutant type EZH2(Y641N), 0.38 nM; in data set [1] (Homo sapiens, KARPAS-422) it was 4.76 nM; at wild-type EZH2, 1.83 nM; in data set [3] (Homo sapiens, Pfeiffer), 4.24 nM; at Mutant type EZH2(A677G), 0.91 nM. Also, the inhibition in vivo at 100 mg/kg in data set [2] turned out to be 98%.
The bioavailability is dose-corrected exposure relative to a reference, in per cent. Consider `CCN(c1cc(-c2ccc3c(c2)N(C)C(=O)C32CCNCC2)cc(C(=O)NCc2c(OC)cc(C)[nH]c2=O)c1C)C1CCOCC1` [Example 34, 3-(ethyl(tetrahydro-2H-pyran-4-yl)amino)-N-((4-methoxy-6-methyl-2-carbonyl-1,2-dihydropyridin-3-yl)methyl)-2-methyl-5-(1-methyl-2-carbonylspiro[dihydroindole-3,4′-piperidine]-6-yl)benzamide], for which the AUC was found to be 966 ng·h/mL in data set [4] (setting [5]) and 1750 ng·h/mL in data set [4] (setting [7]). The half-life in data set [4] (setting [6]) is 1.32 h. Further, the Cmax in data set [4] (setting [8]) was 594 ng/mL. In addition, the bioavailability in data set [4] (setting [9]) came out at 36.3%. Moreover, the inhibition in vivo at 100 mg/kg in data set [2] turned out to be 96%.
On to `CCN(c1cc(-c2ccc3c(c2)NC(=O)C32CCN(C3COC3)CC2)cc(C(=O)NCc2c(C)cc(C)[nH]c2=O)c1C)C1CCOCC1` [Example 84, N-((4,6-dimethyl-2-oxo-1,2-dihydropyridin-3-yl)methyl)-3-(ethyl(tetrahydro-2H-pyran-4-yl)amino)-2-methyl-5-(1′-(oxetan-3-yl)-2-oxospiro[dihydroindole-3,4′-piperidine]-6-yl)benzamide], for which the figures for the AUC in data set [4] (setting [10]) and in data set [4] (setting [11]) were 933 ng·h/mL and 1190 ng·h/mL, respectively. Besides, the half-life in data set [4] (setting [10]) is 1.38 h. Moreover, in data set [4] (setting [11]), the Cmax is 501 ng/mL. This molecule displayed a bioavailability in data set [4] (setting [11]) of 25.4%. The IC50 at Mutant type EZH2(Y641F) is 0.63 nM; at Mutant type EZH2(Y641N), 0.25 nM; in data set [1] (Homo sapiens, KARPAS-422), 1.86 nM; at wild-type EZH2 it was 2.13 nM; in data set [3] (Homo sapiens, Pfeiffer), 1.74 nM; at Mutant type EZH2(A677G), 0.47 nM.
Consider `CCN(c1cc(-c2ccc3c(c2)NCC32CCOCC2)cc(C(=O)NCc2c(OC)cc(C)[nH]c2=O)c1C)C1CCNCC1` [Example 5, 3-(ethyl(piperidin-4-yl)amino)-N-((4-methoxy-6-methyl-2-oxo-1,2-dihydropyridin-3-yl)methyl)-2-methyl-5-(2′,3′,5′,6′-tetrahydrospiro[indoline-3,4′-pyran]-6-yl)benzamide], for which the AUC turned out to be 912 ng·h/mL in data set [4] (setting [5]) and 1570 ng·h/mL in data set [4] (setting [7]). In addition, the half-life in data set [4] (setting [6]) was 1.05 h. Also, the Cmax in data set [4] (setting [8]) was 453 ng/mL. The bioavailability in data set [4] (setting [9]) was found to be 34.3%. Further, in data set [2], the inhibition in vivo at 100 mg/kg was 98%.
In the case of `CCN(c1cc(-c2cc3c(cc2F)C2(CCOCC2)C(=O)N3C)cc(C(=O)NCc2c(C)cc(C)[nH]c2=O)c1C)C1CCOCC1` [Example 12, N-((4,6-dimethyl-2-carbonyl-1,2-dihydropyridin-3-yl)methyl)-3-(ethyl(tetrahydro-2H-pyran-4-yl)amino)-5-(5-fluoro-1-methyl-2-carbonyl-2′,3′,5′,6′-tetrahydrospiro[dihydroindole-3,4′-pyran]-6-yl)-2-methylbenzamide], the AUC in data set [4] (setting [5]) was determined as 896 ng·h/mL; in data set [4] (setting [7]), 1510 ng·h/mL. For the same molecule, the half-life in data set [4] (setting [6]) was 1.37 h. The Cmax in data set [4] (setting [8]) turned out to be 412 ng/mL. Also, the bioavailability in data set [4] (setting [9]) was found to be 33.7%. In addition, the IC50 in data set [1] (Homo sapiens, KARPAS-422) is 0.96 nM; in data set [3] (Homo sapiens, Pfeiffer), 0.19 nM. Also, in data set [2], the inhibition in vivo at 100 mg/kg is 99%.
With `CCN(c1cc(-c2ccc3c(c2)C2(CCOCC2)C(=O)N3)cc(C(=O)NCc2c(C)cc(C)[nH]c2=O)c1C)C1CCOCC1` [Example 77, N-((4,6-dimethyl-2-oxo-1,2-dihydropyridin-3-yl)methyl)-3-(ethyl(tetrahydro-2H-pyran-4-yl)amino)-2-methyl-5-(2-oxo-2′,3′,5′,6′-tetrahydrospiro[dihydroindole-3,4′-pyran]-5-yl)benzamide], the IC50 was 8.15 nM in data set [1] (Homo sapiens, KARPAS-422); 0.91 nM on wild-type EZH2; 7.16 nM in data set [3] (Homo sapiens, Pfeiffer); 0.67 nM on Mutant type EZH2(A677G). Moreover, the inhibition in vivo at 100 mg/kg in data set [2] stood at 100%.
`CCN(c1cc(-c2ccc3c(c2)NCC32CCN(C)CC2)cc(C(=O)NCc2c(C)cc(C)[nH]c2=O)c1C)C1CCOCC1` [Example 7, N-((4,6-dimethyl-2-oxo-1,2-dihydropyridin-3-yl)methyl)-3-(ethyl(tetrahydro-2H-pyran-4-yl)amino)-2-methyl-5-(1′-methylspiro[dihydroindole-3,4′-piperidine]-6-yl)benzamide]: in data set [4] (rats, Intravenous-Dose 4 mg/kg), the “Area Curve (AUC, ng/mL · h)” value is 937.25 ng·h/mL and the “Half life T1/2, h)” value is reported as 1.64 h. Besides, in data set [4] (rats, Oral-Dose 20 mg/kg), the “Area Curve (AUC, ng/mL · h)” value is 1435.87 ng·h/mL and the “Blood Drug level (Cmax, ng/mL)” value amounted to 405.10 ng/mL. In addition, the “Bioavailability (P %)” value in data set [4] (setting [12]) amounted to 30.64%. Also, the inhibited tumor growth in data set [2] is listed as 95%.
“3-(ethyl(tetrahydro-2H-pyran-4-yl)amino)-5-(6-fluoro-2,2′,3,3′,5′,6′-hexahydrospiro[indene-1,4′-pyran]-5-yl)-N-((4-methoxy-6-methyl-2-oxo-1,2-dihydropyridin-3-yl)methyl)-2-methylbenzamide 9-1 and 3-(ethyl(tetrahydro-2H-pyran-4-yl)amino)-5-(5-fluoro-2,2′,3,3′,5′,6′-hexahydrospiro[indene-1,4′-pyran]-6-yl)-N-((4-methoxy-6-methyl-2-oxo-1,2-dihydropyridin-3-yl)methyl)-2-methylbenzamide 9-2 [Example 9]”: the “Area Curve (AUC, ng/mL · h)” value in data set [4] (rats, Intravenous-Dose 4 mg/kg) was 926.01 ng·h/mL; in data set [4] (rats, Oral-Dose 20 mg/kg), 1522.36 ng·h/mL. Besides, in data set [4] (rats, Intravenous-Dose 4 mg/kg), the “Half life T1/2, h)” value is 1.54 h. The “Blood Drug level (Cmax, ng/mL)” value in data set [4] (rats, Oral-Dose 20 mg/kg) was 437.25 ng/mL. Further, in data set [4] (setting [12]), the “Bioavailability (P %)” value was 32.88%. The IC50 is 0.52 nM at Mutant type EZH2(Y641F); 1.8 nM in data set [1]; 0.7 nM at wild-type EZH2; 0.42 nM in data set [3]; 0.37 nM at Mutant type EZH2(A677G). Besides, in data set [2], the inhibited tumor growth was 97%.
Regarding `CCN(c1cc(-c2ccc3c(c2)C2(CCOCC2)C(=O)N3C)cc(C(=O)NCc2c(OC)cc(C)[nH]c2=O)c1C)C1CCN(CC(F)(F)F)CC1` [Example 109, 3-(Ethyl(1-(2,2,2-trifluoroethyl)piperidin-4-yl)amino)-N-((4-methoxy-6-methyl-2-oxo-1,2-dihydropyridin-3-yl)methyl)-2-methyl-5-(1-methyl-2-oxo-2′,3′,5′,6′-tetrahydrospiro[dihydroindole-3,4′-pyran]-5-yl)benzamide], the AUC in data set [4] (setting [5]) was 966 ng·h/mL; in data set [4] (setting [7]), 1610 ng·h/mL. In data set [4] (setting [6]), the half-life is 1.12 h. For the same molecule, in data set [4] (setting [8]), the Cmax worked out at 456 ng/mL. In addition, the bioavailability in data set [4] (setting [9]) stood at 53.3%. The IC50 on Mutant type EZH2(Y641F) was 0.72 nM; in data set [1] (Homo sapiens, KARPAS-422), 2.15 nM; at wild-type EZH2 it was 0.81 nM; in data set [3] (Homo sapiens, Pfeiffer), 1.34 nM; on Mutant type EZH2(A677G), 0.63 nM. Also, the inhibition in vivo at 100 mg/kg in data set [2] was 101%.
